Experimental data from patent US20160324962A1, “COMPOSITIONS AND METHODS FOR TREATING SARCOMA” (MEDIMMUNE, LLC, priority 2013, published 2016).

Assays:
RD-ES cells = test: Cytotoxicity assay, MEDI-573 and mTOR inhibitors; format: cell-based; conditions: agents alone or in combination (FIG. 14)
[1] = system: RD-ES (Ewing's sarcoma) xenografts; test: Xenograft efficacy study in mice; format: in vivo; conditions: RD-ES xenograft model
From the text: Although proliferation of SK-ES-1 and SJCRH30 cells was inhibited by MEDI-573 in vitro in the absence of exogenous IGFs, the in vivo growth of these two models was not effected by MEDI-573 treatment.
The combination treatments were tolerated as no significant body weight loss was observed (FIG. 17B).
For in vivo efficacy studies, five million sarcoma cells in 50% matrigel were inoculated subcutaneously into each female athymic nude mice. When tumors reach approximately 150-200 mm^3, mice were randomly assigned into groups (10 mice per group). MEDI-573 was administrated intraperitoneally twice per week at indicated doses. The dose regimen for AZD2014 was oral once every day, for rapamycin was intraperitoneal injection every 3 days. Tumor volumes were measured twice weekly with calipers. Tumor growth inhibition was calculated on the last day of study relative to the initial and final mean tumor volume of the control group.

pS6K = test: Immunoblot of cell lysates after MEDI-573, mTORi, combination; format: cell-based
Experimental: (§1) To examine the effect of MEDI-573, mTORi, and combination of both on IGF signaling, RD-ES, SJSA-1, and KHOS cells were treated with these agents for 4 hours. After separation of the cell lysates by gel electrophoresis, the proteins were detected by immunoblotting.

pAKT = test: as above; format: cell-based; conditions: all 3 cell lines, 4 hours
Experimental: as §1

p4EBP1 = test: as above; format: cell-based; conditions: single agent, 4 hours
Experimental: as §1

Row | Structure (SMILES) | decrease in cell viability (RD-ES cells) [%] | tumor growth inhibition ([1]; AZD2014 combination study (FIG. 16A)) [%] | phosphorylation of pS6K (pS6K; RD-ES cells) | phosphorylation of pS6K (pS6K; SJSA-1 or KHOS cells) | tumor growth inhibition ([1]; rapamycin combination study (FIG. 17A)) [%] | pS6K (pS6K; all 3 cell lines (RD-ES, SJSA-1, KHOS), 4 hours) | phosphorylation of AKT (pAKT) | phosphorylation of 4EBP1 (p4EBP1)
1 | CNC(=O)c1cccc(-c2ccc3c(N4CCOC[C@@H]4C)nc(N4CCOC[C@@H]4C)nc3n2)c1 [AZD2014] | 55 | 51 | inhibited phosphorylation of pS6K | did not inhibit phosphorylation of pS6K | – | – | – | –
2 | CO[C@H]1C[C@@H]2CC[C@@H](C)[C@@](O)(O2)C(=O)C(=O)N2CCCC[C@H]2C(=O)O[C@H]([C@H](C)C[C@@H]2CC[C@@H](O)[C@H](OC)C2)CC(=O)[C@H](C)/C=C(\C)[C@@H](O)[C@@H](OC)C(=O)[C@H](C)C[C@H](C)/C=C/C=C/C=C/1C [rapamycin] | 34 | – | – | – | 44 | completely inhibited pS6K | induced phosphorylation of AKT | did not have effect
